Test results from patent publication US20020156236A1, “Binding sites for phosphotyrosine binding domains” (priority 1995, published 2002).
Where a SMILES comes first, the peptide text is derived from it.

target: T1, PTB domain/c-erbB2 binding (GST-PTB domain of SHC; c-erbB2 from SKBR3 lysate) (Homo sapiens, UniProt P29353); test: biochemical; details: Inhibition (relative inhibition scale of IC50)
T1 construct: GST-PTB domain fusion proteins were expressed from recombinant baculovirus in sf9 cells; made in house; host or cells: Sf9 cells (recombinant baculovirus) for GST-PTB; c-erbB2 endogenous in SKBR3 cell lysate
T1 sequence (P29353 156-341): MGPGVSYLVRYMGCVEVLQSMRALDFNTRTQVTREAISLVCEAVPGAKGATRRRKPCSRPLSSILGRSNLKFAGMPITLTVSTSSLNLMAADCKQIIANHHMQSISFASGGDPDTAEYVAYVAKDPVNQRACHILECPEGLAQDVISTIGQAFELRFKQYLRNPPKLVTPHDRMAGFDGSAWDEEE

SMILES | IC50 [µM]
CC(C)C[C@H](NC(=O)[C@H](CC(N)=O)NC(=O)[C@H](CC(=O)O)NC(=O)[C@H](Cc1ccccc1)NC(=O)[C@H](C)NC(=O)[C@@H]1CCCN1C(=O)[C@H](CO)NC(=O)[C@H](Cc1ccccc1)NC(=O)[C@H](C)NC(=O)[C@@H]1CCCN1)C(=O)N[C@@H](Cc1ccccc1)C(=O)N[C@@H](Cc1ccc(O)cc1)C(=O)N[C@@H](Cc1ccc(OP(=O)(O)O)cc1)C(=O)N[C@@H](Cc1c[nH]c2ccccc12)C(=O)N[C@@H](CC(=O)O)C(=O)N[C@@H](CCC(N)=O)C(=O)N[C@@H](CC(N)=O)C(=O)N[C@@H](CO)C(=O)N[C@@H](CO)C(=O)N[C@@H](CCC(=O)O)C(=O)N[C@@H](CCC(N)=O)C(=O)NCC(=O)O [PAFSPAFDNLFY (pY) WDQNSSEQG] (HELM PEPTIDE1{P.A.F.S.P.A.F.D.N.L.F.Y.[O=C([C@H](Cc1ccc(OP(=O)(O)O)cc1)N[*:1])[*:2]].W.D.Q.N.S.S.E.Q.G}$$$$V2.0) | 0.5 to 5
C[C@H](NC(=O)[C@@H]1CCCN1)C(=O)N[C@@H](Cc1ccccc1)C(=O)N[C@@H](CO)C(=O)N1CCC[C@H]1C(=O)N[C@@H](C)C(=O)N[C@@H](Cc1ccccc1)C(=O)N[C@@H](CC(=O)O)C(=O)N[C@@H](CC(N)=O)C(=O)N[C@@H](C)C(=O)N[C@@H](Cc1ccc(O)cc1)C(=O)N[C@@H](Cc1ccc(OP(=O)(O)O)cc1)C(=O)N[C@@H](Cc1c[nH]c2ccccc12)C(=O)N[C@@H](CC(=O)O)C(=O)N[C@@H](CCC(N)=O)C(=O)N[C@@H](CC(N)=O)C(=O)N[C@@H](CO)C(=O)N[C@@H](CO)C(=O)N[C@@H](CCC(=O)O)C(=O)N[C@@H](CCC(N)=O)C(=O)NCC(=O)O [PAFSPAFDNAY (pY) WDQNSSEQG, PAFSPAFDNAY(pY)WDQNSSEQG] (HELM PEPTIDE1{P.A.F.S.P.A.F.D.N.A.Y.[O=C([C@H](Cc1ccc(OP(=O)(O)O)cc1)N[*:1])[*:2]].W.D.Q.N.S.S.E.Q.G}$$$$V2.0) | 0.5 to 5
CC(C)C[C@H](NC(=O)[C@H](CC(N)=O)NC(=O)[C@H](CO)NC(=O)[C@H](Cc1ccccc1)NC(=O)[C@H](C)NC(=O)[C@@H]1CCCN1C(=O)[C@H](CO)NC(=O)[C@H](Cc1ccccc1)NC(=O)[C@H](C)NC(=O)[C@@H]1CCCN1)C(=O)N[C@@H](Cc1ccc(O)cc1)C(=O)N[C@@H](Cc1ccc(OP(=O)(O)O)cc1)C(=O)N[C@@H](Cc1c[nH]c2ccccc12)C(=O)N[C@@H](CC(=O)O)C(=O)N[C@@H](CCC(N)=O)C(=O)N[C@@H](CC(N)=O)C(=O)N[C@@H](CO)C(=O)N[C@@H](CO)C(=O)N[C@@H](CCC(=O)O)C(=O)N[C@@H](CCC(N)=O)C(=O)NCC(=O)O [PAFSPAFSNLY (pY) WDQNSSEQG, PAFSPAFSNLY(pY)WDQNSSEQG] (HELM PEPTIDE1{P.A.F.S.P.A.F.S.N.L.Y.[O=C([C@H](Cc1ccc(OP(=O)(O)O)cc1)N[*:1])[*:2]].W.D.Q.N.S.S.E.Q.G}$$$$V2.0) | 5 to 50
CC(C)C[C@H](NC(=O)[C@H](C)NC(=O)[C@H](CC(=O)O)NC(=O)[C@H](Cc1ccccc1)NC(=O)[C@H](C)NC(=O)[C@@H]1CCCN1C(=O)[C@H](CO)NC(=O)[C@H](Cc1ccccc1)NC(=O)[C@H](C)NC(=O)[C@@H]1CCCN1)C(=O)N[C@@H](Cc1ccc(O)cc1)C(=O)N[C@@H](Cc1ccc(OP(=O)(O)O)cc1)C(=O)N[C@@H](Cc1c[nH]c2ccccc12)C(=O)N[C@@H](CC(=O)O)C(=O)N[C@@H](CCC(N)=O)C(=O)N[C@@H](CC(N)=O)C(=O)N[C@@H](CO)C(=O)N[C@@H](CO)C(=O)N[C@@H](CCC(=O)O)C(=O)N[C@@H](CCC(N)=O)C(=O)NCC(=O)O [PAFSPAFDALY (pY) WDQNSSEQG] (HELM PEPTIDE1{P.A.F.S.P.A.F.D.A.L.Y.[O=C([C@H](Cc1ccc(OP(=O)(O)O)cc1)N[*:1])[*:2]].W.D.Q.N.S.S.E.Q.G}$$$$V2.0) | > 50
CC(C)C[C@H](NC(=O)[C@H](CC(N)=O)NC(=O)[C@H](CC(=O)O)NC(=O)[C@H](Cc1ccccc1)NC(=O)[C@H](C)NC(=O)[C@@H]1CCCN1C(=O)[C@H](CO)NC(=O)[C@H](Cc1ccccc1)NC(=O)[C@H](C)NC(=O)[C@@H]1CCCN1)C(=O)N[C@@H](Cc1ccc(O)cc1)C(=O)N[C@@H](Cc1ccc(OP(=O)(O)O)cc1)C(=O)N[C@@H](Cc1c[nH]c2ccccc12)C(=O)N[C@@H](CC(=O)O)C(=O)N[C@@H](CCC(N)=O)C(=O)N[C@@H](C)C(=O)N[C@@H](CO)C(=O)N[C@@H](CO)C(=O)N[C@@H](CCC(=O)O)C(=O)N[C@@H](CCC(N)=O)C(=O)NCC(=O)O [PAFSPAFDNLY (pY) WDQASSEQG, PAFSPAFDNLY(pY)WDQASSEQG] (HELM PEPTIDE1{P.A.F.S.P.A.F.D.N.L.Y.[O=C([C@H](Cc1ccc(OP(=O)(O)O)cc1)N[*:1])[*:2]].W.D.Q.A.S.S.E.Q.G}$$$$V2.0) | 0.5 to 5
CC(C)C[C@H](NC(=O)[C@H](CC(N)=O)NC(=O)[C@H](CC(=O)O)NC(=O)[C@H](C)NC(=O)[C@H](C)NC(=O)[C@@H]1CCCN1C(=O)[C@H](CO)NC(=O)[C@H](Cc1ccccc1)NC(=O)[C@H](C)NC(=O)[C@@H]1CCCN1)C(=O)N[C@@H](Cc1ccc(O)cc1)C(=O)N[C@@H](Cc1ccc(OP(=O)(O)O)cc1)C(=O)N[C@@H](Cc1c[nH]c2ccccc12)C(=O)N[C@@H](CC(=O)O)C(=O)N[C@@H](CCC(N)=O)C(=O)N[C@@H](CC(N)=O)C(=O)N[C@@H](CO)C(=O)N[C@@H](CO)C(=O)N[C@@H](CCC(=O)O)C(=O)N[C@@H](CCC(N)=O)C(=O)NCC(=O)O [PAFSPAADNLY (pY) WDQNSSEQG, PAFSPAADNLY(pY)WDQNSSEQG] (HELM PEPTIDE1{P.A.F.S.P.A.A.D.N.L.Y.[O=C([C@H](Cc1ccc(OP(=O)(O)O)cc1)N[*:1])[*:2]].W.D.Q.N.S.S.E.Q.G}$$$$V2.0) | 0.5 to 5
CC(C)C[C@H](NC(=O)[C@H](CC(N)=O)NC(=O)[C@H](CC(=O)O)NC(=O)[C@H](Cc1ccccc1)NC(=O)[C@H](C)NC(=O)[C@@H]1CCCN1C(=O)[C@H](CO)NC(=O)[C@H](Cc1ccccc1)NC(=O)[C@H](C)NC(=O)[C@@H]1CCCN1)C(=O)N[C@@H](Cc1ccc(O)cc1)C(=O)N[C@@H](Cc1ccc(OP(=O)(O)O)cc1)C(=O)N[C@@H](Cc1c[nH]c2ccccc12)C(=O)N[C@@H](C)C(=O)N[C@@H](CCC(N)=O)C(=O)N[C@@H](CC(N)=O)C(=O)N[C@@H](CO)C(=O)N[C@@H](CO)C(=O)N[C@@H](CCC(=O)O)C(=O)N[C@@H](CCC(N)=O)C(=O)NCC(=O)O [PAFSPAFDNLY (pY) WAQNSSEQG, PAFSPAFDNLY(pY)WAQNSSEQG] (HELM PEPTIDE1{P.A.F.S.P.A.F.D.N.L.Y.[O=C([C@H](Cc1ccc(OP(=O)(O)O)cc1)N[*:1])[*:2]].W.A.Q.N.S.S.E.Q.G}$$$$V2.0) | 0.05 to 0.5
CC(C)C[C@H](NC(=O)[C@H](CC(N)=O)NC(=O)[C@H](CC(=O)O)NC(=O)[C@H](Cc1ccccc1)NC(=O)[C@H](C)NC(=O)[C@@H]1CCCN1C(=O)[C@H](CO)NC(=O)[C@H](Cc1ccccc1)NC(=O)[C@H](C)NC(=O)[C@@H]1CCCN1)C(=O)N[C@@H](Cc1ccc(O)cc1)C(=O)N[C@@H](Cc1ccc(OP(=O)(O)O)cc1)C(=O)N[C@@H](Cc1c[nH]c2ccccc12)C(=O)N[C@@H](CC(=O)O)C(=O)N[C@@H](C)C(=O)N[C@@H](CC(N)=O)C(=O)N[C@@H](CO)C(=O)N[C@@H](CO)C(=O)N[C@@H](CCC(=O)O)C(=O)N[C@@H](CCC(N)=O)C(=O)NCC(=O)O [PAFSPAFDNLY (pY) WDANSSEQG, PAFSPAFDNLY(pY)WDANSSEQG] (HELM PEPTIDE1{P.A.F.S.P.A.F.D.N.L.Y.[O=C([C@H](Cc1ccc(OP(=O)(O)O)cc1)N[*:1])[*:2]].W.D.A.N.S.S.E.Q.G}$$$$V2.0) | 0.5 to 5
CC(C)C[C@H](NC(=O)[C@H](CC(=O)O)NC(=O)[C@H](CC(=O)O)NC(=O)[C@H](Cc1ccccc1)NC(=O)[C@H](C)NC(=O)[C@@H]1CCCN1C(=O)[C@H](CO)NC(=O)[C@H](Cc1ccccc1)NC(=O)[C@H](C)NC(=O)[C@@H]1CCCN1)C(=O)N[C@@H](Cc1ccc(O)cc1)C(=O)N[C@@H](Cc1ccc(OP(=O)(O)O)cc1)C(=O)N[C@@H](Cc1c[nH]c2ccccc12)C(=O)N[C@@H](CC(=O)O)C(=O)N[C@@H](CCC(N)=O)C(=O)N[C@@H](CC(N)=O)C(=O)N[C@@H](CO)C(=O)N[C@@H](CO)C(=O)N[C@@H](CCC(=O)O)C(=O)N[C@@H](CCC(N)=O)C(=O)NCC(=O)O [PAFSPAFDDLY (pY) WDQNSSEQG] (HELM PEPTIDE1{P.A.F.S.P.A.F.D.D.L.Y.[O=C([C@H](Cc1ccc(OP(=O)(O)O)cc1)N[*:1])[*:2]].W.D.Q.N.S.S.E.Q.G}$$$$V2.0) | > 50
CC(C)C[C@H](NC(=O)[C@H](CC(N)=O)NC(=O)[C@H](CC(=O)O)NC(=O)[C@H](Cc1ccccc1)NC(=O)[C@H](C)NC(=O)[C@@H]1CCCN1C(=O)[C@H](CO)NC(=O)[C@H](Cc1ccccc1)NC(=O)[C@H](C)NC(=O)[C@@H]1CCCN1)C(=O)N[C@@H](C)C(=O)N[C@@H](Cc1ccc(O)cc1)C(=O)N[C@@H](Cc1ccc(OP(=O)(O)O)cc1)C(=O)N[C@@H](Cc1c[nH]c2ccccc12)C(=O)N[C@@H](CC(=O)O)C(=O)N[C@@H](CCC(N)=O)C(=O)N[C@@H](CC(N)=O)C(=O)N[C@@H](CO)C(=O)N[C@@H](CO)C(=O)N[C@@H](CCC(=O)O)C(=O)N[C@@H](CCC(N)=O)C(=O)NCC(=O)O [PAFSPAFDNLAY (pY) WDQNSSEQG] (HELM PEPTIDE1{P.A.F.S.P.A.F.D.N.L.A.Y.[O=C([C@H](Cc1ccc(OP(=O)(O)O)cc1)N[*:1])[*:2]].W.D.Q.N.S.S.E.Q.G}$$$$V2.0) | 0.5 to 5
CC(C)C[C@H](NC(=O)[C@H](CCC(N)=O)NC(=O)[C@H](CC(=O)O)NC(=O)[C@H](Cc1ccccc1)NC(=O)[C@H](C)NC(=O)[C@@H]1CCCN1C(=O)[C@H](CO)NC(=O)[C@H](Cc1ccccc1)NC(=O)[C@H](C)NC(=O)[C@@H]1CCCN1)C(=O)N[C@@H](Cc1ccc(O)cc1)C(=O)N[C@@H](Cc1ccc(OP(=O)(O)O)cc1)C(=O)N[C@@H](Cc1c[nH]c2ccccc12)C(=O)N[C@@H](CC(=O)O)C(=O)N[C@@H](CCC(N)=O)C(=O)N[C@@H](CC(N)=O)C(=O)N[C@@H](CO)C(=O)N[C@@H](CO)C(=O)N[C@@H](CCC(=O)O)C(=O)N[C@@H](CCC(N)=O)C(=O)NCC(=O)O [PAFSPAFDQLY (pY) WDQNSSEQG] (HELM PEPTIDE1{P.A.F.S.P.A.F.D.Q.L.Y.[O=C([C@H](Cc1ccc(OP(=O)(O)O)cc1)N[*:1])[*:2]].W.D.Q.N.S.S.E.Q.G}$$$$V2.0) | > 50
